# In patent US20250051356A1, “RIFABUTIN ANALOGS FOR THE TREATMENT OF DISEASE” (priority 2021, published 2025):
# Read-outs that look alike come from different tables or passages of the source.
# Experiments:
# Type in all cases: cell-based
# M. xenopi (ATCC 19250) = experiment: MIC against M. xenopi in CAMHB + ADC; conditions: Mycobacterium xenopi
# [1] = system: S. aureus (UAMS-1625 strain); experiment: MIC by broth microdilution against S. aureus; conditions: Staphylococcus aureus, read-out: MIC S. aureus
# [2] = system: M. abscessus subsp. abscessus ATCC 19977; experiment: MIC against M. abscessus in Middlebrook 7H9 + ADC; conditions: Mycobacteroides abscessus
# M. avium (ATCC 25291) = experiment: MIC against M. avium in CAMHB + ADC; conditions: Mycobacterium avium
# M. kansasii (ATCC 12478) = experiment: MIC against M. kansasii in CAMHB + ADC; conditions: Mycobacterium kansasii
# [3] = system: A. baumannii (HUMC1 strain); experiment: MIC by broth microdilution against A. baumannii in RPMI + 10% FCS; conditions: Acinetobacter baumannii, read-out: MIC A. baumannii
# [4] = ATCC19250, ATCC 19250, CAMHB + ADC (5%), read-out: MIC M. xenopi
# [5] = ATCC19977, ATCC 19977, 7H9 + ADC, read-out: MIC M. abscessus
# [6] = ATCC25291, ATCC 25291, CAMHB + ADC (5%), read-out: MIC M. avium
# [7] = ATCC12478, ATCC 12478, CAMHB + ADC (5%), read-out: MIC M. kansasii
# [8] = ATCC19250, read-out: MIC M. xenopi
# [9] = ATCC19977, read-out: MIC M. abscessus
# [10] = ATCC12478, read-out: MIC M. kansasii
SMILES,MIC (M. xenopi (ATCC 19250); [4]),MIC [1],"MIC [2, 5]",MIC (M. avium (ATCC 25291); [6]),MIC (M. kansasii (ATCC 12478); [7]),"MIC ([3]; HUMC1 strain, RPMI + 10% FCS)",MIC (M. xenopi (ATCC 19250); [8]),"MIC [2, 9]","MIC (M. avium (ATCC 25291); ATCC25291, read-out: MIC M. avium)",MIC (M. kansasii (ATCC 12478); [10]),MIC [3]
CO[C@H]1/C=C/O[C@@]2(C)Oc3c(C)c(O)c4c(c3C2=O)C2=NC3(CCN(CC(C)C)CC3)NC2=C(NC(=O)/C(C)=C\C=C\[C@H](C)[C@H](O)[C@@H](C)[C@@H](O)[C@@H](C)[C@H](OC(=O)CC(=O)N2CCCN(C)CC2)[C@@H]1C)C4=O [Compound 120],1 µg/mL,0.06 µg/mL,0.25 µg/mL,2 µg/mL,250 ng/mL,0.06 µg/mL,,,,,
CO[C@H]1/C=C/O[C@@]2(C)Oc3c(C)c(O)c4c(c3C2=O)C2=NC3(CCN(CC(C)C)CC3)NC2=C(NC(=O)/C(C)=C\C=C\[C@H](C)[C@H](O)[C@@H](C)[C@@H](O)[C@@H](C)[C@H](OC(=O)CC(=O)N2CCC3(CC2)Cc2ccccc2C3)[C@@H]1C)C4=O [Compound 52],0.03 µg/mL,0.5 µg/mL,0.125 µg/mL,0.03 µg/mL,2 ng/mL,0.016 µg/mL,,,,,
CO[C@H]1/C=C/O[C@@]2(C)Oc3c(C)c(O)c4c(c3C2=O)C2=NC3(CCN(CC(C)C)CC3)NC2=C(NC(=O)/C(C)=C\C=C\[C@H](C)[C@H](O)[C@@H](C)[C@@H](O)[C@@H](C)[C@H](OC(=O)C(C)C(=O)N2CCC(N(C)c3ccccc3)CC2)[C@@H]1C)C4=O (stereo partly drawn) [Compound 40],0.03 µg/mL,0.5 µg/mL,0.125 µg/mL,0.06 µg/mL,1 ng/mL,0.03 µg/mL,,,,,
CO[C@H]1/C=C/O[C@@]2(C)Oc3c(C)c(O)c4c(c3C2=O)C2=NC3(CCN(CC(C)C)CC3)NC2=C(NC(=O)/C(C)=C\C=C\[C@H](C)[C@H](O)[C@@H](C)[C@@H](O)[C@@H](C)[C@H](OC(=O)CC(=O)N2CCN(c3ccncc3)CC2)[C@@H]1C)C4=O [Compound 116],1 µg/mL,0.06 µg/mL,0.25 µg/mL,2 µg/mL,60 ng/mL,≤ 0.002 µg/mL,,,,,
CO[C@H]1/C=C/O[C@@]2(C)Oc3c(C)c(O)c4c(c3C2=O)C2=NC3(CCN(CC(C)C)CC3)NC2=C(NC(=O)/C(C)=C\C=C\[C@H](C)[C@H](O)[C@@H](C)[C@@H](O)[C@@H](C)[C@H](OC(=O)CC(=O)N2CCC(Nc3ccccc3)CC2)[C@@H]1C)C4=O [Compound 44],,0.25 µg/mL,,,,,0.03 µg/mL,0.25 µg/mL,0.06 µg/mL,4 ng/mL,0.008 µg/mL
CO[C@H]1/C=C/OC2(C)Oc3c(C)c(O)c4c(c3C2=O)C2=NC3(CCN(CC(C)C)CC3)NC2=C(NC(=O)/C(C)=C\C=C\[C@H](C)[C@H](O)[C@@H](C)[C@@H](O)[C@@H](C)[C@H](OC(=O)CC(=O)N2C3CCC2CC(c2ccccc2)C3)[C@@H]1C)C4=O (stereo partly drawn) [Compound 102],,0.5 µg/mL,,0.03 µg/mL,,,0.06 µg/mL,0.25 µg/mL,,8 ng/mL,0.03 µg/mL
CO[C@H]1/C=C/O[C@@]2(C)Oc3c(C)c(O)c4c(c3C2=O)C2=NC3(CCN(CC(C)C)CC3)NC2=C(NC(=O)/C(C)=C\C=C\[C@H](C)[C@H](O)[C@@H](C)[C@@H](O)[C@@H](C)[C@H](OC(=O)CC(=O)N2CCC(CCc3ccccc3)CC2)[C@@H]1C)C4=O [Compound 56],0.06 µg/mL,2 µg/mL,0.25 µg/mL,0.5 µg/mL,30 ng/mL,0.03 µg/mL,,,,,
CO[C@H]1/C=C/O[C@@]2(C)Oc3c(C)c(O)c4c(c3C2=O)C2=NC3(CCN(CC(C)C)CC3)NC2=C(NC(=O)/C(C)=C\C=C\[C@H](C)[C@H](O)[C@@H](C)[C@@H](O)[C@@H](C)[C@H](OC(=O)CC(=O)N2CCCN(Cc3ccc(F)cc3)CC2)[C@@H]1C)C4=O [Compound 127],0.03 µg/mL,0.25 µg/mL,0.125 µg/mL,0.125 µg/mL,8 ng/mL,0.06 µg/mL,,,,,
CO[C@H]1/C=C/O[C@@]2(C)Oc3c(C)c(O)c4c(c3C2=O)C2=NC3(CCN(CC(C)C)CC3)NC2=C(NC(=O)/C(C)=C\C=C\[C@H](C)[C@H](O)[C@@H](C)[C@@H](O)[C@@H](C)[C@H](OC(=O)CC(=O)N2CCCN(c3cccc(C(F)(F)F)n3)CC2)[C@@H]1C)C4=O [Compound 123],0.125 µg/mL,0.5 µg/mL,0.25 µg/mL,0.06 µg/mL,8 ng/mL,0.25 µg/mL,,,,,
CCC(C(=O)O[C@H]1[C@H](C)[C@H](O)[C@H](C)[C@@H](O)[C@@H](C)/C=C/C=C(/C)C(=O)NC2=C3NC4(CCN(CC(C)C)CC4)N=C3c3c(c(O)c(C)c4c3C(=O)[C@@](C)(O/C=C/[C@H](OC)[C@H]1C)O4)C2=O)C(=O)N1CCCN(c2ccc(F)cc2)CC1 (stereo partly drawn) [Compound 79],0.03 µg/mL,0.5 µg/mL,0.125 µg/mL,0.125 µg/mL,4 ng/mL,0.03 µg/mL,,,,,
